The text below walks through data of patent US7531194B2, “Plant extracts for the treatment of rheumatoid arthritis” (Development Center for Biotechnology, priority 2006, dated 2009).

Format in all cases: in vivo, Lewis rats
The subject of one assay is IL-1β. Put plainly: PEC cytokine IL-1β, CIA rats fed PA extracts (Embodiment 4). The procedure: (§1) 1. After carbon dioxide euthanasia, the outer furs of the rat abdominal cavity were cut out by scissors, to expose the whole abdominal cavity.
(§2) 2. HBSS buffer was injected into the abdominal cavity batch-wise by a 10 ml syringe to make a total volume of about 20 ml/rat.
(§3) 3. The abdominal cavity of the rat was opened after the abdomen was gently kneaded. An incision of about 2 cm was made in the abdominal cavity by using scissors. Peritoneal exudation cell (PEC) liquid (about 10 to 15 ml of cellular fluid could be collected) was drawn with a syringe, and placed into a 50 ml centrifuge tube.
(§4) 4. The supernatant was removed after the liquid was centrifuged at 1500 rpm for 5 minutes. 10 ml of HBSS buffer was added to wash, and then centrifuged, after which the supernatant was removed.
(§5) 5. The cell concentration was adjusted to 2×10^6 cells/ml with a fresh culture medium (containing antibiotics).
(§6) 6. The cell suspension was divided into a 48-well plate at 0.5 ml/well.
(§7) 7. An additional. 0.5 ml of lipopolysaccharides (LPS) (20 μg/ml) was added separately, making a final concentration of 10 μg/ml.
(§8) 8. Finally, it was placed into a 37° C. incubator for 24 hours. The supernatant was collected, and stored in −20° C. The concentrations of cytokine TNF-α, IL-6, and IL-1β were analyzed by using ELISA kit.
(§9) In the present animal test, the test animals and apparatus used are the same as those disclosed in embodiment 2.
The animal test scheme is shown as FIG. 11. Bovine collagen type II was dissolved in 0.1 M acetic acid solution, stirred to dissolve thoroughly, and formulated into solutions of concentrations of 1.5 and 3 mg/ml, which were stored at 4° C. for later use. For the first immune injection, 100 μl of C II solution was emulsified with an equal amount of CFA, and injected subcutaneously (200 μl/rat) in the root portions of tails of the rats after the emulsification was complete. […] After about 15 days, the second immunization was done. […]

Another assay concerns Rheumatoid factor (RF). Put plainly: Serum RF of CIA rats fed PA extracts (Embodiment 4). As to the method: 1. Collagen was formulated in a coating buffer to a concentration of 40 μg/ml, 0.1 ml of which was added into a 96-well micro plate respectively, and was kept in 4° C. overnight.
2. After washing with Tris buffer three times, 0.2 ml of blocking buffer containing 1% BSA was added into each well. The reaction lasted for 2 hours at room temperature, and then was washed by Tris buffer three times again.
3. After the serum sample was diluted appropriately with Tris buffer containing 0.05% Tween 20 ( 1/20 or 1/40), 0.1 ml serum sample was added into each well of the 96-well micro plate. The reaction lasted for 2 hours at room temperature, and then was washed by Tris buffer three times again.
4. Coated anti-rat immunoglobulin M (IgM) was combined with horseradish […] (HRP), appropriately diluted ( 1/12000), and then added into the 96-well micro plate. The reaction lasted 2 hours at room temperature, and then was washed by Tris buffer three times again.
5. 0.1 ml of tetramethyl benzidine (TMB) was directly added into each well for color reaction, and then a stopping solution was added to stop the reaction. Finally, absorption (O.D) value was read out at the wavelength of 450 nm.
as §9
(§10) The animal test scheme is shown as FIG. 11. Bovine collagen type II was dissolved in 0.1 M acetic acid solution, stirred to dissolve thoroughly, and formulated into solutions of concentrations of 1.5 and 3 mg/ml, which were stored at 4° C. for later use. For the first immune injection, 100 μl of C II solution was emulsified with an equal amount of CFA, and injected subcutaneously (200 μl/rat) in the root portions of tails of the rats after the emulsification was complete. […] After about 15 days, the second immunization was done. 100 μl of C II solution was emulsified with an equal amount of IFA, and injected subcutaneously (200 μl/rat) in the root portions of tails of the rats after the emulsification was complete. Approximately from Day 18, the symptoms of arthritis were observed (CIA rats), and PA and CBX were fed from Day 19 until Day 38.

The subject of assay [1] is CIA rats. Put plainly: Joint swelling degree (toe thickness) of CIA rats fed PA extracts (Embodiment 4). The procedure:
The thickness changes of soles of rats were measured by a Vernier Caliper (twice per week), and there were eight measurement sites in total in each rat, including one site at the center of each sole of the two front feet respectively, and three sites in each of the two back feet (ankle joint, sole, and root portion of toe) respectively.
as §9, §10

The test system of the next assay is IL-6. The assay can be described thus: PEC cytokine IL-6, CIA rats fed PA extracts (Embodiment 4). The conditions noted are these: PEC of CIA rats, gavage Day 19-38; doses as in the 4th table. The procedure:
as §1, §2, §3, §4, §5, §6, §7, §8
In the present animal test, the test animals and apparatus used are the same as those disclosed in embodiment 2. […]

The test system of assay [2] is CIA rats. The assay can be described thus: Maximum arthritic index (MAI) of CIA rats fed PA extracts (Embodiment 4). The procedure: After immunization, the rats were observed three times a week. The changes of redness and swelling or the like in limbs were recorded, and photographs were taken and filed for comparison. The scoring of the examinations was based on 5 grades as follows:
Maximum arthritic index, average MAI for each group was calculated as follows: Average MAI=Total of MAI recorded in limbs of each rat (0: no CIA occurs, 16: highest score)/4/total rat number of each group
as §9, §10

[3] abbreviates: PEC of CIA rats, gavage Day 19-38, doses as in the 4th table.
[4] abbreviates: gavage Day 19-38, doses as in the 4th table.

On to `Cc1ccc(-c2cc(C(F)(F)F)nn2-c2ccc(S(N)(=O)=O)cc2)cc1` [CBX, Ceelebrex], for which, in the assay on IL-1β (setting [3]), the “IL-1β, inhibitory effect” value is recorded as “(38%)” and the “IL-1β, inhibitory effect (grade)” value was “++ (“++” represents 25 to 50% of inhibitory effect)”. For the same compound, the “inhibition of PEC secreting IL-1β” value in the assay on IL-1β (PEC of fed CIA rats, FIG. 17) is “significantly inhibits”. Further, the “reduction of serum RF value” in the assay with Rheumatoid factor (RF) (Day 30 compared to Day 18, FIG. 15) is given as “about 52%”. Besides, in the assay with Rheumatoid factor (RF) (Day 37 compared to Day 18, FIG. 15), the “reduction of serum RF value” is “about 66%”. In the assay on Rheumatoid factor (RF) (setting [4]), the “RF, inhibitory effect” value is recorded as “(43%)” and the “RF, inhibitory effect (grade)” value is given as “++ (“++” represents 25 to 50% of inhibitory effect)”. The “Toe thickness, inhibitory effect (grade)” value with CIA rats [1] (gavage Day 19-38, CBX 18, PA-EtOH 40.5, PA-F1 3.0, PA-F2 1.13, PA-F3 11.3, PA-F4 11.3 mg/kg/day) was “++ (“++” represents 25 to 50% of inhibitory effect)”. For the same compound, the “Toe thickness, inhibitory effect” value in the assay with CIA rats [1] (setting [4]) is “(49%)”. Further, in the assay with IL-6, the “IL-6, inhibitory effect” value is “(36%)” and the “IL-6, inhibitory effect (grade)” value is given as “++ (“++” represents 25 to 50% of inhibitory effect)”. In the assay on CIA rats [2] (setting [4]), the “MAI, inhibitory effect” value was “(40%)” and the “MAI, inhibitory effect (grade)” value was “++ (“++” represents 25 to 50% of inhibitory effect)”. For the same compound, the “effect on the arthritic indices (MAI) of CIA rats” value in the assay with CIA rats [2] (gavage Day 19 until Day 38, FIG. 13) is “most preferred”.
